Laboratory results reported in US8845879B2 (priority 2010, dated 2014).
Read-outs that look alike come from different tables or passages of the source.

Columns and labels:
[1] = system: mitochondria isolated from Saccharomyces cerevisiae; assay type: biochemical
[2] = system: immobilized mouse liver mitochondria; assay type: biochemical
[3] = before vs after overnight soak at 4° C. in pesticide solution, average ± standard deviation

## O=C(O)COc1ccc(Cl)cc1Cl [2,4-D, 2,4-Dichlorophenoxyacetic acid]
[1]
  change in peak area (ΔAh): −8.237E−05 ± 1.713E−05 C
  change in peak height (Δip): −1.617E−06 ± 5.286E−07 A

## CCNc1nc(Cl)nc(NC(C)C)n1 [Atrazine]
[1]
  change in peak area (ΔAh): −6.809E−05 ± 1.708E−05 C
  change in peak height (Δip): −8.290E−07 ± 2.197E−07 A

## COc1ccc2nc([S@@+]([O-])Cc3ncc(C)c(OC)c3C)[nH]c2c1 [Esomeprazole]
[2]
  attenuated current: 16.8±6.4%
  attenuation (decrease) in current: 1.7±10.3%
  attenuation in metabolic energy conversion: 19.9±7.6%
  attenuation in metabolic energy production: 58.8±11.1%

## C[n+]1ccc(-c2cc[n+](C)cc2)cc1 [Paraquat]
[1]
  change in peak area (ΔAh): −3.690E−05 ± 1.109E−05 C
  change in peak height (Δip): −8.582E−07 ± 1.870E−07 A

## CCOP(=S)(OCC)Oc1ccc([N+](=O)[O-])cc1 [Parathion]
[1]; [3]
  change in peak area (ΔAh): −2.721E−05 ± 9.349E−06 C
  change in peak height (Δip): −4.491E−07 ± 2.512E−07 A

## CC1(C)C(C=C(Cl)Cl)C1C(=O)OCc1cccc(Oc2ccccc2)c1 (stereo not drawn) [Permethrin]
[1]
  change in peak area (ΔAh): −6.597E−05 ± 1.238E−05 C
  change in peak height (Δip): −1.015E−06 ± 2.065E−07 A

## O=C(O)c1ccccc1O [Salicylic acid]
[2]
  change in current after treatment (in words): not statistically significant
  higher metabolic energy flux than untreated mitochondria: 18.6±1.5%

## CC1=NS(=O)(=O)c2cc(Cl)ccc2N1 [diazoxide]
[2]
  inhibition of mitochondrial function (in words): partial inhibition

## CC[C@H]1/C=C/C=C/C[C@@H](C)[C@H](O)[C@@](C)(O)C(=O)[C@@H](C)[C@H](O)[C@@H](C)C(=O)[C@@H](C)[C@H](O)[C@@H](C)/C=C/C(=O)O[C@@H]2[C@H](C)[C@H](CC1)O[C@]1(CC[C@H](C)[C@H](C[C@@H](C)O)O1)[C@H]2C [oligomycin]
[2]
  attenuation (decrease) in current: 36.5±3.7%
  attenuation in metabolic energy conversion: 60.9±1.0%

## C=C(C)[C@H]1Cc2c(ccc3c2O[C@@H]2COc4cc(OC)c(OC)cc4[C@@H]2C3=O)O1 [rotenone]
[2]
  inhibition of mitochondrial function (in words): strong inhibitory response

## antimycin
[2]
  inhibition of mitochondrial function (in words): strong inhibitory response
